Measured values taken from ChEMBL document CHEMBL1155869, “Red light-activated phosphorothioate oligodeoxyribonucleotides” (Bioorg Med Chem Lett, 2008).
The source made the active and inactive calls. The rule behind the calls is not given here.

What was measured:
[1] = Binding affinity to complementary DNA
[2] = Binding affinity to complementary RNA

| Structure (SMILES) | Activity [1] | Activity [2] |
| --- | --- | --- |
| Cc1cn([C@H]2C[C@H](OP(=O)(O)OC[C@H]3O[C@@H](n4ccc(N)nc4=O)[C@H](O)[C@@H]3OP(=O)(O)OC[C@H]3O[C@@H](n4cnc5c(=O)[nH]c(N)nc54)[C@H](O)[C@@H]3OP(=O)(O)OC[C@H]3O[C@@H](n4cnc5c(N)ncnc54)[C@H](O)[C@@H]3OP(=O)(O)OC[C@H]3O[C@@H](n4cnc5c(=O)[nH]c(N)nc54)[C@H](O)[C@@H]3OP(=O)(O)OC[C@H]3O[C@@H](n4ccc(N)nc4=O)[C@H](O)[C@@H]3OP(=O)(O)OC[C@H]3O[C@@H](n4cnc5c(=O)[nH]c(N)nc54)[C@H](O)[C@@H]3OP(=O)(O)OC[C@H]3O[C@@H](n4cc(C)c(=O)[nH]c4=O)C[C@@H]3OP(=O)(O)OC[C@H]3O[C@@H](n4cc(C)c(=O)[nH]c4=O)C[C@@H]3OP(=O)(O)OC[C@H]3O[C@@H](n4ccc(N)nc4=O)[C@H](O)[C@@H]3OP(=O)(O)OC[C@H]3O[C@@H](n4cc(C)c(=O)[nH]c4=O)C[C@@H]3OP(=O)(O)OC[C@H]3O[C@@H](n4ccc(N)nc4=O)[C@H](O)[C@@H]3OCCCS/C=C\SCCCOP(OC[C@H]3O[C@@H](n4cnc5c(N)ncnc54)[C@H](O)[C@@H]3OP(=O)(O)OC[C@H]3O[C@@H](n4ccc(N)nc4=O)[C@H](O)[C@@H]3OP(=O)(O)OC[C@H]3O[C@@H](n4cnc5c(=O)[nH]c(N)nc54)[C@H](O)[C@@H]3OP(=O)(O)OC[C@H]3O[C@@H](n4ccc(N)nc4=O)[C@H](O)[C@@H]3OP(=O)(O)OC[C@H]3O[C@@H](n4cc(C)c(=O)[nH]c4=O)C[C@@H]3OP(=O)(O)OC[C@H]3O[C@@H](n4ccc(N)nc4=O)[C@H](O)[C@@H]3OP(=O)(O)OC[C@H]3O[C@@H](n4cnc5c(=O)[nH]c(N)nc54)[C@H](O)[C@@H]3OP(=O)(O)OC[C@H]3O[C@@H](n4cnc5c(N)ncnc54)[C@H](O)[C@@H]3O)N(C(C)C)C(C)C)[C@@H](CO)O2)c(=O)[nH]c1=O (stereo partly specified) | inactive | inactive |
| Cc1cn([C@H]2C[C@H](OP(=O)(O)OC[C@H]3O[C@@H](n4ccc(N)nc4=O)[C@H](O)[C@@H]3OP(=O)(O)OC[C@H]3O[C@@H](n4cnc5c(=O)[nH]c(N)nc54)[C@H](O)[C@@H]3OP(=O)(O)OC[C@H]3O[C@@H](n4cnc5c(N)ncnc54)[C@H](O)[C@@H]3O)[C@@H](COP(=O)(O)O[C@H]3[C@@H](O)[C@H](n4ccc(N)nc4=O)O[C@@H]3COP(=O)(O)O[C@H]3[C@@H](O)[C@H](n4cnc5c(=O)[nH]c(N)nc54)O[C@@H]3COP(=O)(O)O[C@H]3[C@@H](O)[C@H](n4ccc(N)nc4=O)O[C@@H]3COP(=O)(O)O[C@H]3[C@@H](O)[C@H](n4cnc5c(N)ncnc54)O[C@@H]3CO)O2)c(=O)[nH]c1=O | Active | Active |
| Cc1cn([C@H]2C[C@H](OP(=O)(O)OC[C@H]3O[C@@H](n4ccc(N)nc4=O)[C@H](O)[C@@H]3OP(=O)(O)OC[C@H]3O[C@@H](n4cnc5c(=O)[nH]c(N)nc54)[C@H](O)[C@@H]3OP(=O)(O)OC[C@H]3O[C@@H](n4cnc5c(N)ncnc54)[C@H](O)[C@@H]3OP(=O)(O)OC[C@H]3O[C@@H](n4cnc5c(=O)[nH]c(N)nc54)[C@H](O)[C@@H]3OP(=O)(O)OC[C@H]3O[C@@H](n4ccc(N)nc4=O)[C@H](O)[C@@H]3OP(=O)(O)OC[C@H]3O[C@@H](n4cnc5c(=O)[nH]c(N)nc54)[C@H](O)[C@@H]3OP(=O)(O)OC[C@H]3O[C@@H](n4cc(C)c(=O)[nH]c4=O)C[C@@H]3OP(=O)(O)OC[C@H]3O[C@@H](n4cc(C)c(=O)[nH]c4=O)C[C@@H]3OP(=O)(O)OC[C@H]3O[C@@H](n4ccc(N)nc4=O)[C@H](O)[C@@H]3OP(=O)(O)OC[C@H]3O[C@@H](n4cc(C)c(=O)[nH]c4=O)C[C@@H]3OP(=O)(O)OC[C@H]3O[C@@H](n4ccc(N)nc4=O)[C@H](O)[C@@H]3O)[C@@H](CO)O2)c(=O)[nH]c1=O | Active | Active |
